{"source": "ChEMBL document CHEMBL1139805", "about": "“Marine natural products from the Turkish sponge Agelas oroides that inhibit the enoyl reductases from Plasmodium falciparum, Mycobacterium tuberculosis and Escherichia coli” (Bioorg Med Chem, 2007)", "key": {"[1]": {"system": "Trypanosoma brucei rhodesiense", "experiment": "Antitrypanosomal activity against Trypanosoma brucei rhodesiense after 72 hrs by Alamar blue assay", "type": "functional, organism-based"}, "Plasmodium falciparum": {"system": "Plasmodium falciparum", "experiment": "Antimalarial activity against chloroquine-resistant, pyrimethamine-resistant Plasmodium falciparum K1 after 48 hrs", "type": "functional, organism-based", "settings": "K1, 48 h"}, "Trypanosoma cruzi": {"system": "Trypanosoma cruzi", "experiment": "Antitrypanosomal activity against Trypanosoma cruzi after 72 hrs", "type": "functional, organism-based"}, "L6": {"system": "L6", "experiment": "Cytotoxicity against rat L6 cells after 72 hrs", "type": "cell-based", "settings": "L6, 72 h"}, "Leishmania donovani": {"system": "Leishmania donovani", "experiment": "Antileishmanial activity against Leishmania donovani after 72 hrs by Alamar blue assay", "type": "functional, organism-based"}, "[2]": {"target": "T1, Enoyl-acyl-carrier protein reductase (Plasmodium falciparum, UniProt Q965D5)", "T1 sequence (Q965D5 whole entry)": "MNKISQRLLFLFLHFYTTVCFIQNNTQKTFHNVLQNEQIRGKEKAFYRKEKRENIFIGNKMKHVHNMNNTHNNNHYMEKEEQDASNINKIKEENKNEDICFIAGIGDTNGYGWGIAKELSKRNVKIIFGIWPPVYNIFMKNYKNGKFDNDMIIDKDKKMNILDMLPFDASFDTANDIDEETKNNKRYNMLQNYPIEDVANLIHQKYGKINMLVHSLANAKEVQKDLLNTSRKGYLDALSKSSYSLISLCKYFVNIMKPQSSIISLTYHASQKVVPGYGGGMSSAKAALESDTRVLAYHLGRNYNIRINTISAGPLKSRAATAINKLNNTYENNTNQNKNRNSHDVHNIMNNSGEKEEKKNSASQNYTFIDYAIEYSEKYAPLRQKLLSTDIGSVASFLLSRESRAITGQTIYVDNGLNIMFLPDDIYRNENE", "experiment": "Inhibition of Plasmodium falciparum FabI"}, "[3]": {"target": "T1, Enoyl-acyl-carrier protein reductase", "experiment": "Inhibition of Plasmodium falciparum FabI in presence of variable crotonyl-coA level"}, "[4]": {"target": "T1, Enoyl-acyl-carrier protein reductase", "experiment": "Inhibition of Plasmodium falciparum FabI in presence of variable NADH levels"}}, "data": [{"compound": "Nc1nc(N)nc(Nc2ccc([As]3SCC(CO)S3)cc2)n1", "note": "(centres undefined) [MELARSOPROL]", "values": [{"measurement": "IC50", "setting": "[1]", "result": 0.0027, "unit": "µg/mL"}]}, {"compound": "NC/C=C/c1cnc(N)[nH]1", "values": [{"measurement": "IC50", "setting": "Plasmodium falciparum", "result": 7.4, "unit": "µg/mL"}, {"measurement": "IC50", "setting": "Trypanosoma cruzi", "result": 2.5, "unit": "µg/mL"}, {"measurement": "IC50", "setting": "[1]", "result": 2.4, "unit": "µg/mL"}, {"measurement": "IC50", "setting": "L6", "result": 0.7, "unit": "µg/mL"}, {"measurement": "IC50", "setting": "Leishmania donovani", "result": 13.1, "unit": "µg/mL"}, {"measurement": "IC50", "setting": "[2]", "result": "> 724", "unit": "µM"}]}, {"compound": "Oc1cc(Cl)ccc1Oc1ccc(Cl)cc1Cl", "note": "[TRICLOSAN]", "values": [{"measurement": "IC50", "setting": "[2]", "result": 0.0484, "unit": "µM"}]}, {"compound": "O=C(O)c1cc(Br)c(Br)[nH]1", "values": [{"measurement": "IC50", "setting": "Plasmodium falciparum", "result": "> 50", "unit": "µg/mL"}, {"measurement": "IC50", "setting": "Trypanosoma cruzi", "result": "> 30", "unit": "µg/mL"}, {"measurement": "IC50", "setting": "[1]", "result": 20.9, "unit": "µg/mL"}, {"measurement": "IC50", "setting": "L6", "result": "> 90", "unit": "µg/mL"}, {"measurement": "IC50", "setting": "Leishmania donovani", "result": 7.9, "unit": "µg/mL"}, {"measurement": "IC50", "setting": "[2]", "result": "> 372", "unit": "µM"}]}, {"compound": "NCCS(=O)(=O)O", "note": "[TAURINE]", "values": [{"measurement": "IC50", "setting": "Plasmodium falciparum", "result": "> 50", "unit": "µg/mL"}, {"measurement": "IC50", "setting": "Trypanosoma cruzi", "result": "> 30", "unit": "µg/mL"}, {"measurement": "IC50", "setting": "[1]", "result": 83.4, "unit": "µg/mL"}, {"measurement": "IC50", "setting": "L6", "result": "> 90", "unit": "µg/mL"}, {"measurement": "IC50", "setting": "Leishmania donovani", "result": "> 30", "unit": "µg/mL"}, {"measurement": "IC50", "setting": "[2]", "result": "> 799", "unit": "µM"}]}, {"compound": "Nc1ncc(/C=C/CNC(=O)c2cc(Br)c(Br)[nH]2)[nH]1", "note": "[OROIDIN]", "values": [{"measurement": "IC50", "setting": "Plasmodium falciparum", "result": 3.9, "unit": "µg/mL"}, {"measurement": "IC50", "setting": "Trypanosoma cruzi", "result": "> 30", "unit": "µg/mL"}, {"measurement": "Ki", "setting": "[3]", "result": 0.4, "unit": "µM"}, {"measurement": "Ki", "setting": "[4]", "result": 0.8, "unit": "µM"}, {"measurement": "IC50", "setting": "[1]", "result": 17.3, "unit": "µg/mL"}, {"measurement": "IC50", "setting": "L6", "result": 88.6, "unit": "µg/mL"}, {"measurement": "IC50", "setting": "Leishmania donovani", "result": "> 30", "unit": "µg/mL"}, {"measurement": "IC50", "setting": "[2]", "result": 0.771, "unit": "µM"}]}, {"compound": "O=C(O)C(F)(F)F.O=C(O)c1cc(Br)c(Br)[nH]1", "values": [{"measurement": "IC50", "setting": "Plasmodium falciparum", "result": 49.9, "unit": "µg/mL"}, {"measurement": "IC50", "setting": "Trypanosoma cruzi", "result": "> 30", "unit": "µg/mL"}, {"measurement": "IC50", "setting": "[1]", "result": 25.2, "unit": "µg/mL"}, {"measurement": "IC50", "setting": "L6", "result": "> 90", "unit": "µg/mL"}, {"measurement": "IC50", "setting": "Leishmania donovani", "result": 5.8, "unit": "µg/mL"}, {"measurement": "IC50", "setting": "[2]", "result": 104, "unit": "µM"}]}, {"compound": "CC[C@@H](CC[C@@H](C)[C@H]1CC[C@H]2C3=CC[C@H]4C[C@@H](O)CC[C@]4(C)[C@H]3CC[C@]12C)C(C)C", "values": [{"measurement": "IC50", "setting": "Plasmodium falciparum", "result": 16.1, "unit": "µg/mL"}, {"measurement": "IC50", "setting": "Trypanosoma cruzi", "result": "> 30", "unit": "µg/mL"}, {"measurement": "IC50", "setting": "[1]", "result": 14.2, "unit": "µg/mL"}, {"measurement": "IC50", "setting": "L6", "result": "> 90", "unit": "µg/mL"}, {"measurement": "IC50", "setting": "Leishmania donovani", "result": 29.5, "unit": "µg/mL"}, {"measurement": "IC50", "setting": "[2]", "result": 43.4, "unit": "µM"}]}, {"compound": "Nc1ncc(/C=C/CNC(=O)c2cc(Br)c(Br)[nH]2)[nH]1.O=C(O)C(F)(F)F", "note": "[OROIDIN TFA SALT]", "values": [{"measurement": "IC50", "setting": "Plasmodium falciparum", "result": 7.9, "unit": "µg/mL"}, {"measurement": "IC50", "setting": "Trypanosoma cruzi", "result": "> 30", "unit": "µg/mL"}, {"measurement": "IC50", "setting": "[1]", "result": 12.2, "unit": "µg/mL"}, {"measurement": "IC50", "setting": "L6", "result": 76.4, "unit": "µg/mL"}, {"measurement": "IC50", "setting": "Leishmania donovani", "result": 15.4, "unit": "µg/mL"}, {"measurement": "IC50", "setting": "[2]", "result": 9.94, "unit": "µM"}]}, {"compound": "COc1cc([C@@H]2c3cc4c(cc3[C@H](O)[C@H]3COC(=O)[C@H]23)OCO4)cc(OC)c1OC", "note": "[PODOFILOX]", "values": [{"measurement": "IC50", "setting": "L6", "result": 0.009, "unit": "µg/mL"}]}, {"compound": "COC(=O)c1cc(Br)c(Br)[nH]1", "values": [{"measurement": "IC50", "setting": "Plasmodium falciparum", "result": "> 50", "unit": "µg/mL"}, {"measurement": "IC50", "setting": "Trypanosoma cruzi", "result": "> 30", "unit": "µg/mL"}, {"measurement": "IC50", "setting": "[1]", "result": 13.3, "unit": "µg/mL"}, {"measurement": "IC50", "setting": "L6", "result": "> 90", "unit": "µg/mL"}, {"measurement": "IC50", "setting": "Leishmania donovani", "result": "> 30", "unit": "µg/mL"}, {"measurement": "IC50", "setting": "[2]", "result": "> 353", "unit": "µM"}]}, {"compound": "O=C(Cn1ccnc1[N+](=O)[O-])NCc1ccccc1", "note": "[BENZNIDAZOLE]", "values": [{"measurement": "IC50", "setting": "Trypanosoma cruzi", "result": 0.17, "unit": "µg/mL"}]}]}
